pIC50: −log10 of the molar value. Counter-ions that a name gives are not always drawn. Blank lines part the entries; values can stand above or below the compound they belong to.
Columns and labels:
[1] = molecular target: human thrombin (Homo sapiens, UniProt P00734); assay: Chromogenic thrombin inhibition assay (substrate S-2238); type: biochemical; settings: purified human thrombin, chromogenic substrate S-2238 83 μM, 37° C., mean of duplicates
[2] = molecular target: T1, human coagulation factor Xa (Homo sapiens, UniProt P00742); assay: Chromogenic F Xa inhibition assay (substrate S-2765); type: biochemical; settings: purified human factor Xa, chromogenic substrate S-2765 62.5 μM, 37° C., mean of duplicates
T1 construct: purchased Enzyme Research Laboratories HFXa
T1 sequence (P00742 235-488 limits assumed): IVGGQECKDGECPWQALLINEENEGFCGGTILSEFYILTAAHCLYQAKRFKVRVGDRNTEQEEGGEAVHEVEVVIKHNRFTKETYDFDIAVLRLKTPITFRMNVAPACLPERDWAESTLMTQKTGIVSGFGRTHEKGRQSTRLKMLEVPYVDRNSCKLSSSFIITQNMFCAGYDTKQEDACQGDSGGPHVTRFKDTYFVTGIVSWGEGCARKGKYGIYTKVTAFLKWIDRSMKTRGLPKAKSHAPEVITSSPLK
T1 sequence (P00742 41-179 partner limits assumed): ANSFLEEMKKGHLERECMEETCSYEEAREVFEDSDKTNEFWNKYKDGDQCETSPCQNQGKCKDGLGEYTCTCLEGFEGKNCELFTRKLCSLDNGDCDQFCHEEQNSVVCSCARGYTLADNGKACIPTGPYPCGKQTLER

Structure (SMILES): CCc1c(N2CCOCC2=O)cccc1S(=O)(=O)N[C@@H](CNC(=O)c1csc(Cl)c1)C(=O)N1CCOC[C@@H]1C [Example 2, 5-Chloro-thiophene-3-carboxylic acid [(S)-2-[2-ethyl-3-(3-oxo-morpholin-4-yl)-benzenesulfonylamino]-3-((S)-3-methyl-morpholin-4-yl)-3-oxo-propyl]-amide]
pIC50 [1]: 6.60
pIC50 [2]: 8.01

Structure (SMILES): O=C(NC[C@H](NS(=O)(=O)c1cccc(N2CCCC2=O)c1Cl)C(=O)N1CCNCC1)c1ccc(Cl)s1 [Example 15, 5-Chloro-thiophene-2-carboxylic acid {(S)-2-[2-chloro-3-(2-oxo-pyrrolidin-1-yl)-benzenesulfonylamino]-3-oxo-3-piperazin-1-yl-propyl}-amide]
pIC50 [1]: 6.18
pIC50 [2]: 8.88

Structure (SMILES): COCCN1CCN(C(=O)[C@H](CNC(=O)c2ccc(Cl)s2)NS(=O)(=O)c2cc(F)cc(N3CCCC3=O)c2C)CC1 [Example 16, 5-Chloro-thiophene-2-carboxylic acid {(S)-2-[5-fluoro-2-methyl-3-(2-oxo-pyrrolidin-1-yl)-benzenesulfonylamino]-3-[4-(2-methoxy-ethyl)-piperazin-1-yl]-3-oxo-propyl}-amide trifluoro acetate]
pIC50 [1]: 7.27
pIC50 [2]: 8.89

Structure (SMILES): O=C(NC[C@H](NS(=O)(=O)c1cccc(N2CCOCC2=O)c1Cl)C(=O)N1CCCCCC1)c1ccc(Cl)s1 [Example 5, 5-Chloro-thiophene-2-carboxylic acid {(S)-3-azepan-1-yl-2-[2-chloro-3-(3-oxo-morpholin-4-yl)-benzenesulfonylamino]-3-oxo-propyl}-amide]
pIC50 [1]: 7.31
pIC50 [2]: 8.01

Structure (SMILES): Cc1noc(C2CCN(C(=O)[C@H](CNC(=O)c3ccc(Cl)s3)NS(=O)(=O)c3cccc(N4CCCCC4=O)c3OC(F)F)CC2)n1 [Example 11, 5-Chloro-thiophene-2-carboxylic acid {(S)-2-[2-difluoromethoxy-3-(2-oxo-piperidin-1-yl)-benzenesulfonylamino]-3-[4-(3-methyl-[1,2,4]oxadiazol-5-yl)-piperidin-1-yl]-3-oxo-propyl}amide]
pIC50 [1]: 6.42
pIC50 [2]: 8.76

Structure (SMILES): O=C(NC[C@H](NS(=O)(=O)c1cccc(N2CCCCC2=O)c1C(F)(F)F)C(=O)N1CCN(C2CC2)CC1)c1ccc(Cl)s1 [Example 7, 5-Chloro-thiophene-2-carboxylic acid {(S)-3-(4-cyclopropyl-piperazin-1-yl)-3-oxo-2-[3-(2-oxo-piperidin-1-yl)-2-trifluoromethyl-benzenesulfonylamino]propyl}amide trifluoroacetate]
pIC50 [1]: 6.65
pIC50 [2]: 8.99

Structure (SMILES): CCc1c(N2CCOCC2=O)cccc1S(=O)(=O)N[C@@H](CNC(=O)c1ccc(Cl)s1)C(=O)N1CCC[C@@H](OC)C1 [Example 4, 5-Chloro-thiophene-2-carboxylic acid [(S)-2-[2-ethyl-3-(3-oxo-morpholin-4-yl)-benzenesulfonylamino]-3-((R)-3-methoxy-piperidin-1-yl)-3-oxo-propyl]-amide]
pIC50 [1]: 7.21
pIC50 [2]: 8.55

Structure (SMILES): CCc1c(N2CCOCC2=O)cccc1S(=O)(=O)N[C@@H](CNC(=O)c1ccc(Cl)s1)C(=O)N1CCO[C@H](C)C1 [Example 3, 5-Chloro-thiophene-2-carboxylic acid [(S)-2-[2-ethyl-3-(3-oxo-morpholin-4-yl)-benzenesulfonylamino]-3-((R)-2-methyl-morpholin-4-yl)-3-oxo-propyl]-amide]
pIC50 [1]: 7.26
pIC50 [2]: 8.83

Structure (SMILES): O=C(NC[C@H](NS(=O)(=O)c1cc(F)cc(N2CCCCC2=O)c1Cl)C(=O)N1CCN(CC(F)(F)F)CC1)c1ccc(Cl)s1 [Example 183, 5-Chloro-thiophene-2-carboxylic acid {(S)-2-[2-chloro-5-fluoro-3-(2-oxo-piperidin-1-yl)-benzenesulfonylamino]-3-oxo-3-[4-(2,2,2-trifluoro-ethyl)-piperazin-1-yl]-propyl}-amide]
pIC50 [1]: 7.40
pIC50 [2]: 9.40

Stronger by pIC50 [1], values ahead:

pIC50 [1]: 8.46
pIC50 [2]: 8.72
Structure (SMILES): Cc1c(N2CCCC2=O)cccc1S(=O)(=O)N[C@@H](CNC(=O)c1ccc(Cl)s1)C(=O)N1CCc2sccc2C1 [Example 154, 5-Chloro-thiophene-2-carboxylic acid {(S)-3-(6,7-dihydro-4H-thieno[3,2-c]pyridin-5-yl)-2-[2-methyl-3-(2-oxo-pyrrolidin-1-yl)-benzenesulfonylamino]-3-oxo-propyl}-amide]

pIC50 [1]: 7.98
pIC50 [2]: 9.01
Structure (SMILES): O=C(NC[C@H](NS(=O)(=O)c1cccc(N2CCCCC2=O)c1OC(F)F)C(=O)N1CCN(C2CC2)CC1)c1ccc(Cl)s1 [Example 8, 5-Chloro-thiophene-2-carboxylic acid {(S)-3-(4-cyclopropyl-piperazin-1-yl)-2-[2-difluoromethoxy-3-(2-oxo-piperidin-1-yl)-benzenesulfonylamino]-3-oxo-propyl}-amide trifluoroacetate]

pIC50 [1]: 7.72
pIC50 [2]: 8.84
Structure (SMILES): CN1CCN(C(=O)[C@H](CNC(=O)c2ccc(Cl)s2)NS(=O)(=O)c2cc(F)cc(N3CCCC3)c2Cl)CC1 [Example 13, 5-Chloro-thiophene-2-carboxylic acid [(S)-2-(2-chloro-5-fluoro-3-pyrrolidin-1-yl-benzenesulfonylamino)-3-(4-methyl-piperazin-1-yl)-3-oxo-propyl]-amide trifluoro acetate]

pIC50 [1]: 7.98
pIC50 [2]: 9.28
Structure (SMILES): CCOC(=O)C1CCN(C(=O)[C@H](CNC(=O)c2ccc(Cl)s2)NS(=O)(=O)c2cccc(N3CCCCC3=O)c2OC(F)F)CC1 [Example 9, 1-{(S)-3-[(5-Chloro-thiophene-2-carbonyl)-amino]-2-[2-difluoromethoxy-3-(2-oxo-piperidin-1-yl)-benzenesulfonylamino]-propionyl}-piperidine-4-carboxylic acid ethyl ester]

pIC50 [1]: 7.55
pIC50 [2]: 8.74
Structure (SMILES): CN1CCN(C(=O)[C@H](CNC(=O)c2ccc(Cl)s2)NS(=O)(=O)c2cccc(N3CCCC3=O)c2C(F)F)CC1 [Example 17, 5-Chloro-thiophene-2-carboxylic acid [(S)-2-[2-difluoromethyl-3-(2-oxo-pyrrolidin-1-yl)-benzenesulfonylamino]-3-(4-methyl-piperazin-1-yl)-3-oxo-propyl]-amide trifluoro acetate]

pIC50 [1]: 7.57
pIC50 [2]: 8.88
Structure (SMILES): Cc1c(N2CCCC2=O)cc(F)cc1S(=O)(=O)N[C@@H](CNC(=O)c1ccc(Cl)s1)C(=O)N1CCN(C)CC1 [Example 202, 5-Chloro-thiophene-2-carboxylic acid [(S)-2-[5-fluoro-2-methyl-3-(2-oxo-pyrrolidin-1-yl)-benzenesulfonylamino]-3-(4-methyl-piperazin-1-yl)-3-oxo-propyl]-amide]

pIC50 [1]: 8.25
pIC50 [2]: 9.06
Structure (SMILES): COc1c(N2CCOCC2=O)cc(F)cc1S(=O)(=O)N[C@@H](CNC(=O)c1ccc(Cl)s1)C(=O)N1CCCCCC1 [Example 6, 5-Chloro-thiophene-2-carboxylic acid {(S)-3-azepan-1-yl-2-[5-fluoro-2-methoxy-3-(3-oxo-morpholin-4-yl)-benzenesulfonylamino]-3-oxo-propyl}-amide]
